Experimental data published in article PMC12163657 (ACS Omega, 2025).
Numbering of substitutions follows the chain as printed.

Columns and labels:
[1] = Human hepatocyte stability; format: in vitro ADME; conditions: hepatocytes
[2] = Plasma protein binding, rapid equilibrium dialysis, human plasma; format: in vitro ADME
CAMA-1 ESR1 WT cells = test: CAMA-1 cell proliferation, ESR1 WT; format: cell-based; conditions: Homo sapiens, CAMA-1, read-out: CAMA-1 cell prolif. pIC50 (converted)
ERα = biological target: T1, ERα (Homo sapiens, UniProt P03372); test: Alkaline phosphatase; format: cell-based
T1 sequence (P03372 1-595): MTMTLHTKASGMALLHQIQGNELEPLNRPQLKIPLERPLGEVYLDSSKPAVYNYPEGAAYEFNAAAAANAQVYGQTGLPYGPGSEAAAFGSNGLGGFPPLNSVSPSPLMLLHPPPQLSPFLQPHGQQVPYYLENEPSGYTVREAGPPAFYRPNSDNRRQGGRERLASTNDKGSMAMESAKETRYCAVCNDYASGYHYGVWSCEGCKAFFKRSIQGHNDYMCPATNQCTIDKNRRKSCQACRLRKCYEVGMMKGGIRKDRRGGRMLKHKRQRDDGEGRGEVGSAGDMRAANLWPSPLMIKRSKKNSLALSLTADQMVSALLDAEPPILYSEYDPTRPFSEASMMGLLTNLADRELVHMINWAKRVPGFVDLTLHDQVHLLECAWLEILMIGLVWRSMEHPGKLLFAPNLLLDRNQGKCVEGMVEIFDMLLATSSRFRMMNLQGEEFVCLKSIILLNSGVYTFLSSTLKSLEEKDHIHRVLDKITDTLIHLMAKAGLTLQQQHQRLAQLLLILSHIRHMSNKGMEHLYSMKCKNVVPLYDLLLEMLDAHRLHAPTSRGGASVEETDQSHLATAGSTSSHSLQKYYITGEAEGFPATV

[3] = tested on: E2-induced uterine wet weight; test: Ovariectomized mouse uterine wet weight study; format: in vivo; conditions: dose giving 50% inhibition of E2-induced uterine wet weight; oral, once daily, 3 days
[4] = In vivo mouse oral single dose PK
ERα LBD = biological target: T2, ERα LBD (Homo sapiens, UniProt P03372); test: LanthaScreen TR-FRET ERα competitive binding assay
T2 sequence (P03372 311-547 limits assumed): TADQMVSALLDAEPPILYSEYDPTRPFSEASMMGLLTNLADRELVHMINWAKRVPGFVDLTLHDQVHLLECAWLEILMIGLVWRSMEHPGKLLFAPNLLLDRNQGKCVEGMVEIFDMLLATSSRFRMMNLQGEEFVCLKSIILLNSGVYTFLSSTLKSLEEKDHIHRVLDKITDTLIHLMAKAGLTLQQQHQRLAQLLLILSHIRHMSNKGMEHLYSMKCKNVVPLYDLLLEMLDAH

ESR1 Tyr537Ser = biological target: T3, ESR1 Tyr537Ser (Homo sapiens, UniProt P03372, Y537S); test: AP; format: cell-based
T3 sequence (P03372 1-595 Y537S): T1 sequence (P03372 1-595) with Y537S

BCRP = biological target: T4, BCRP (Homo sapiens, UniProt Q9UNQ0); test: BCRP inhibition, membrane vesicles; format: in vitro ADME
T4 sequence (Q9UNQ0 1-655): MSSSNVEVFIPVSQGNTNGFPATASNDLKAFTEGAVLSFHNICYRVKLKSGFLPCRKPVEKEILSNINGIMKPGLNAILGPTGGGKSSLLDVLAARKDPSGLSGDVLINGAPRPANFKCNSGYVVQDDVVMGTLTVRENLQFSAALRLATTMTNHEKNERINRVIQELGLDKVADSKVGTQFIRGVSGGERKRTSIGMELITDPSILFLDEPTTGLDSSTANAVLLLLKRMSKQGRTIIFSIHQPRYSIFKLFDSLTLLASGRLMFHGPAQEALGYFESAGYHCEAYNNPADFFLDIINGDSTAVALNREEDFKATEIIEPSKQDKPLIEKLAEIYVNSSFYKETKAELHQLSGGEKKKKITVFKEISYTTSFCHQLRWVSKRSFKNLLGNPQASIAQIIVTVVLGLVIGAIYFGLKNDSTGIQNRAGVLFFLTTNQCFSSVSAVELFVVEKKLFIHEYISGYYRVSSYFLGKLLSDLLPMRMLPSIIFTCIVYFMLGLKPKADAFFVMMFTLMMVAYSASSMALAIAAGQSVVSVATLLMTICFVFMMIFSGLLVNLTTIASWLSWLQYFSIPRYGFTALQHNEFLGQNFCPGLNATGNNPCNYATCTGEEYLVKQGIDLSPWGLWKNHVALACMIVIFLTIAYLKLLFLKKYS

P-gp = P-gp (Homo sapiens, UniProt P08183); test: P-gp inhibition, membrane vesicles; format: in vitro ADME
Sequence of P-gp (P08183 whole entry): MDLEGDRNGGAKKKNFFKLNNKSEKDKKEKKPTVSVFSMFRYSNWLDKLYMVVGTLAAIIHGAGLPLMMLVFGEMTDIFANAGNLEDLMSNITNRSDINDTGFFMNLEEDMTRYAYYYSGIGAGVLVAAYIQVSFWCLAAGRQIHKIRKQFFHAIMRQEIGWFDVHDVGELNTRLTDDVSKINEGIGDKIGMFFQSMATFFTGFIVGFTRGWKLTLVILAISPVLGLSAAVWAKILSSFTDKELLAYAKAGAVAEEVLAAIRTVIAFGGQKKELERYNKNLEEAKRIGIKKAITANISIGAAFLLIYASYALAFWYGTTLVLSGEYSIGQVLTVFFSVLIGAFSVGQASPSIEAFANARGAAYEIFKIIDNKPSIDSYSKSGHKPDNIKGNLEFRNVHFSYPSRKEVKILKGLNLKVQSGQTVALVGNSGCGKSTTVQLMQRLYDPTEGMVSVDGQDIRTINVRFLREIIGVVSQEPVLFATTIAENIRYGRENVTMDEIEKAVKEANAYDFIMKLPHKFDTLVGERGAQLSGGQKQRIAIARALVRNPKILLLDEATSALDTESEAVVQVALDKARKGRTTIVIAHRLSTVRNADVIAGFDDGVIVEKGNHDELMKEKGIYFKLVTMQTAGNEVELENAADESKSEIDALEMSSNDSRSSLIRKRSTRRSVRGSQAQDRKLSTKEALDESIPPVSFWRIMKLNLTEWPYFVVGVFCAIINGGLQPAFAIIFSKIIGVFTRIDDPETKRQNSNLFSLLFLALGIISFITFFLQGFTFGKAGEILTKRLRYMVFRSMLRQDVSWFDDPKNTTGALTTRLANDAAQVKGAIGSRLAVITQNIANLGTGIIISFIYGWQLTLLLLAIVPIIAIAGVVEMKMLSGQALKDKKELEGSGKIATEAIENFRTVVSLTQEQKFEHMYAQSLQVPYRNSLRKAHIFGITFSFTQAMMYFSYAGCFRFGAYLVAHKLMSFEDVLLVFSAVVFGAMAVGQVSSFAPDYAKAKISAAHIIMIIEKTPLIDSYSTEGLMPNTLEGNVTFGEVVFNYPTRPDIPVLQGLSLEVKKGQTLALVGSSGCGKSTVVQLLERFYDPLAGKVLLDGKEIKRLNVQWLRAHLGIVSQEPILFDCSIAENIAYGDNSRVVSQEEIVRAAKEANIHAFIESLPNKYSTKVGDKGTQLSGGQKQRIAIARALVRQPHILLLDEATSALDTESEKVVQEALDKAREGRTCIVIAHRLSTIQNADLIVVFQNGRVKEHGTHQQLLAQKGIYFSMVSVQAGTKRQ

[5] = Single-dose pharmacokinetics, dog; format: in vivo; conditions: Beagle, serum, 10 mg/kg

In the case of `CCCN1CC(Oc2ccc([C@@H]3c4[nH]c5ccccc5c4C[C@@H](C)N3CC(C)(C)F)cc2)C1` [compound 21, (1R,3R)-2-(2-Fluoro-2-methylpropyl)-3-methyl-1-(4-((1-propylazetidin-3-yl)oxy)phenyl)-2,3,4,9-tetrahydro-1H-pyrido[3,4-b]indole], the half-life [1] is reported as 2.17 h, the hepatocyte CLint [1] is reported as 10.7 µL/min/1e6 cells and the plasma protein-bound ([2]; across all species, including humans) is reported as over 99%. The “Plasma free drug percentage” value ([2]; hu plasma) was 0.08%, the IC50 (CAMA-1 ESR1 WT cells) was 1.58 nM and the IC50 (ERα) was 3.16 nM. The “uterine wet weight ID50” value [3] was under 1 µg/kg, the “total AUCinf” value ([4]; oral single dose) was 2477 ng·h/mL and the “free AUCinf” value ([4]; oral single dose, estimated based on the percent free fraction) was 1.5 ng·h/mL. It also gave a Cmax ([4]; plasma, po) of 121 ng/mL, a half-life ([4]; plasma, po) of 18 h and an IC50 (ERα LBD) of 2 nM. For the same molecule, the IC50 (ESR1 Tyr537Ser) was 50.1 nM, the IC50 (BCRP) was over 5000 nM and the IC50 (P-gp) was 4000 nM. The AUC ([5]; iv) was 41300 ng·h/mL, the Cmax ([5]; iv) was 4060 ng/mL and the Vd ([5]; iv) was 16 L/kg. It also gave a clearance ([5]; iv) of 3.33 mL/min/kg, a half-life ([5]; iv) of 63 h and an AUC ([5]; po) of 33700 ng·h/mL. The Cmax ([5]; po) was 1760 ng/mL, the Tmax ([5]; po) was 1.5 h and the bioavailability ([5]; po) was 89%. The half-life ([5]; po) was 106 h.
